Results as given in PubChem BioAssay AID248 (DTP/NCI, 2004).
“And” between values parts separate entries of the source, which are not always exact repeats. Identical values can stand only once. Toxic doses and inconclusive results are not listed.

Test system: L1210 leukemia ip in BDF1 mice, survival T/C
Experiment: NCI In Vivo Anticancer Drug Screen. Data for tumor model L1210 Leukemia (intraperitoneal) in B6D2F1 (BDF1) mice
Settings: endpoint: mean survival time, higher = longer survival
Procedure, shortened: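 Mice bearing the transplanted tumor received compound or vehicle. Survival of the treated group was divided by that of the vehicle-treated control group to give the ratio.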

[1] = dose: 100.0 mg/kg/injection, schedule: Q01DX009 (ip), vehicle: Klucel (hydroxypropylcellulose) (HPC)
[2] = dose: 100.0 mg/kg/injection, schedule: Q04DX002 (ip), vehicle: Klucel (hydroxypropylcellulose) (HPC)
[3] = dose: 200.0 mg/kg/injection, schedule: Q04DX002 (ip), vehicle: Klucel (hydroxypropylcellulose) (HPC)
[4] = dose: 400.0 mg/kg/injection, schedule: Q04DX002 (ip), vehicle: Klucel (hydroxypropylcellulose) (HPC)
[5] = dose: 75.0 mg/kg/injection, schedule: Q01DX001 (ip), vehicle: saline
[6] = dose: 100.0 mg/kg/injection, schedule: Q01DX001 (ip), vehicle: saline
[7] = dose: 200.0 mg/kg/injection, schedule: Q01DX001 (ip), vehicle: saline
[8] = dose: 400.0 mg/kg/injection, schedule: Q01DX001 (ip), vehicle: saline
[9] = dose: 100.0 mg/kg/injection, schedule: Q04DX002 (ip), vehicle: saline with Tween-80
[10] = dose: 200.0 mg/kg/injection, schedule: Q04DX002 (ip), vehicle: saline with Tween-80
[11] = dose: 400.0 mg/kg/injection, schedule: Q04DX002 (ip), vehicle: saline with Tween-80

## COC(=O)c1ccccc1-n1c(-c2ccc([N+](=O)[O-])cc2)csc1=NC(=O)c1cccc([N+](=O)[O-])c1
[1]
  T/C: 91 % of control
[2]
  T/C: 92 % of control
dose: 200.0 mg/kg/injection, schedule: Q01DX009 (ip), vehicle: Klucel (hydroxypropylcellulose) (HPC)
  T/C: 91 % of control
[3]
  T/C: 95 % of control
dose: 400.0 mg/kg/injection, schedule: Q01DX009 (ip), vehicle: Klucel (hydroxypropylcellulose) (HPC)
  T/C: 88 % of control
[4]
  T/C: 100 % of control

## C=CC1(C)CCC2C(=CCC3C2(C)CC(O)C(O)C3(C)COC2OC(CO)C(O)C(O)C2O)C1 (stereo unspecified)
[5]
  T/C: 96 % of control

## [N-]=[N+]=NC(=O)C1(Br)CCC2c3ccccc3C([N+](=O)[O-])(C1)c1ccccc12 (stereo unspecified)
dose: 100.0 mg/kg/injection, schedule: Q04DX003 (ip), vehicle: saline
  T/C: 101 % of control
dose: 200.0 mg/kg/injection, schedule: Q04DX003 (ip), vehicle: saline
  T/C: 98 % of control
dose: 400.0 mg/kg/injection, schedule: Q04DX003 (ip), vehicle: saline
  T/C: 93 % of control

## CN(C)c1ccc(C=Nc2ccccc2O)cc1
[6]
  T/C: 107 % of control
[7]
  T/C: 96 % of control
[8]
  T/C: 97 % of control

## O=[N+]([O-])/C=C/c1ccco1
dose: 18.75 mg/kg/injection, schedule: Q04DX003 (ip), vehicle: saline with Tween-80
  T/C: 101 % of control
dose: 37.5 mg/kg/injection, schedule: Q04DX003 (ip), vehicle: saline with Tween-80
  T/C: 95 % of control
dose: 75.0 mg/kg/injection, schedule: Q04DX003 (ip), vehicle: saline with Tween-80
  T/C: 101 % of control

## CCN(CC)c1ccccc1S(=O)(=O)O
[6]
  T/C: 104 % of control
[7]
  T/C: 95 % of control
[8]
  T/C: 98 % of control

## Cc1noc(N)c1C#N
[9]
  T/C: 100 % of control
[10]
  T/C: 95 % of control
[11]
  T/C: 89 % of control

## CCNC(C1CCCCC1)C(C)OC(=O)c1ccc(N)cc1 (stereo unspecified)
[5]
  T/C: 98 % of control

## N#Cc1nc2ccc(Cl)cc2nc1C#N
dose: 25.0 mg/kg/injection, schedule: Q01DX009 (ip), vehicle: Klucel (hydroxypropylcellulose) (HPC)
  T/C: 104 % of control
dose: 50.0 mg/kg/injection, schedule: Q01DX009 (ip), vehicle: Klucel (hydroxypropylcellulose) (HPC)
  T/C: 105 % of control
[1]
  T/C: 95 % of control and 102 % of control

## COc1cc(C=O)cc(Br)c1O
[9]
  T/C: 97 % of control
[10]
  T/C: 93 % of control
[11]
  T/C: 87 % of control

## COc1ccc(OC)c(NC(=S)NNC(=S)NNc2ccccc2)c1
[2]
  T/C: 101 % of control
[3]
  T/C: 104 % of control
[4]
  T/C: 93 % of control

## Cc1c([N+](=O)[O-])cc(C(C)(C)C)c(OC(=S)N(C)C)c1[N+](=O)[O-]
dose: 25.0 mg/kg/injection, schedule: Q04DX002 (ip), vehicle: saline with Tween-80
  T/C: 105 % of control
[9]
  T/C: 86 % of control

## O=C(COc1cccc(Cl)c1)Nc1ccccc1
dose: 100.0 mg/kg/injection, schedule: Q01DX009 (ip), vehicle: saline with Tween-80
  T/C: 94 % of control
dose: 200.0 mg/kg/injection, schedule: Q01DX009 (ip), vehicle: saline with Tween-80
  T/C: 100 % of control
dose: 400.0 mg/kg/injection, schedule: Q01DX009 (ip), vehicle: saline with Tween-80
  T/C: 89 % of control

## Cc1c(C(=O)O)nnn1-c1ccccc1
[5]
  T/C: 97 % of control
dose: 150.0 mg/kg/injection, schedule: Q01DX001 (ip), vehicle: saline
  T/C: 96 % of control

## CC(C)CP(=O)(CC(C)C)CC(C)C
dose: 6.25 mg/kg/injection, schedule: Q04DX003 (ip), vehicle: saline with Tween-80
  T/C: 98 % of control

## CCCCCCCCCCCCC/C=C\CC(CC(=O)O)C(=O)Nc1cccc2cnccc12 (stereo unspecified)
dose: 100.0 mg/kg/injection, schedule: Q04DX003 (ip), vehicle: Klucel (hydroxypropylcellulose) (HPC)
  T/C: 97 % of control
dose: 200.0 mg/kg/injection, schedule: Q04DX003 (ip), vehicle: Klucel (hydroxypropylcellulose) (HPC)
  T/C: 103 % of control
dose: 400.0 mg/kg/injection, schedule: Q04DX003 (ip), vehicle: Klucel (hydroxypropylcellulose) (HPC)
  T/C: 97 % of control

## C1CCC(C2CCCC2)C1
[9]
  T/C: 100 % of control
[10]
  T/C: 89 % of control
[11]
  T/C: 110 % of control
